In PubChem BioAssay (NCI):
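Assay format: 96-well plates, 48-hour exposure. Abbreviation: GI50, concentration required for 50% inhibition of growth. At the TGI there is no net growth.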

Columns and labels:
Test in all cases: NCI tumour cell line growth inhibition, 48 h
A549 NSCLC = system: A549 NSCLC
HOP-92 NSCLC = system: HOP-92 NSCLC
HT29 colon = system: HT29 colon
MCF7 breast = system: MCF7 breast
NCI-H460 lung = system: NCI-H460 lung
NCI/ADR-RES ovarian = system: NCI/ADR-RES ovarian
SNB-19 CNS = system: SNB-19 CNS
T-47D breast = system: T-47D breast
TK-10 renal = system: TK-10 renal
HCT-116 colon = system: HCT-116 colon

SMILES	GI50 (A549 NSCLC) [µM]	TGI (A549 NSCLC) [µM]	GI50 (HOP-92 NSCLC) [nM]	TGI (HOP-92 NSCLC) [µM]	GI50 (HT29 colon) [µM]	TGI (HT29 colon) [µM]	GI50 (MCF7 breast) [µM]	TGI (MCF7 breast) [µM]	GI50 (NCI-H460 lung) [µM]	TGI (NCI-H460 lung) [µM]	GI50 (NCI/ADR-RES ovarian) [µM]	TGI (NCI/ADR-RES ovarian) [µM]	GI50 (SNB-19 CNS) [µM]	TGI (SNB-19 CNS) [µM]	GI50 (T-47D breast) [µM]	TGI (T-47D breast) [µM]	GI50 (TK-10 renal) [µM]	TGI (TK-10 renal) [µM]	TGI (HCT-116 colon) [µM]	GI50 (HCT-116 colon) [µM]
C#C[C@]1(O)CC[C@H]2[C@@H]3CC=C4c5sc(Nc6ccccc6)nc5CC[C@]4(C)[C@H]3CC[C@@]21C	3.48	24.9	3810	29.7	1.81	6.68	1.57	4.28	2.4	6.4	2.15	> 100	1.99	7.16	2.05	6.94	3.79	13.2		
O=C(CN1CCCCC1)N1CCc2c([nH]c3ccccc23)C1c1cccnc1 (stereo not drawn)		> 100		> 100		> 100				> 100				> 100				> 100	> 100	
CC(=O)O[C@@H]1C[C@]2(C(C)C)O[C@@]1(C)[C@@H]1CCC(C)=C1[C@@H]2OC(=O)/C=C/c1ccccc1	47	> 100			30.6	> 100	19.5	> 100	30.9	> 100	23.1	> 100	85.3	> 100	19.7	> 100	93.2	> 100	> 100	16.4
COC(=O)C12C3C4C5(C(=O)OC)C(C1C35C(=O)N(C(C)C)C(C)C)C42C(=O)N(C(C)C)C(C)C (stereo not drawn)		> 50		> 50		> 50				> 50				> 50				> 50	33.6	
O=C(CCC/C(CC(=O)c1ccc(Br)cc1)=N\O)Nc1ccccc1		> 100		> 100		> 100				> 100				> 100				> 100	> 100	
Cc1cc(C)n(CCNCCn2nc(C)cc2C)n1		> 100		> 100						> 100				> 100				> 100	> 100	
CC(=O)Oc1ccccc1C(=O)N=C1[Se]CCCN1C(=O)c1ccccc1OC(C)=O	1.85	3.69			3.15	8.73	2.79	10.8	2	5.5	2.92	8.09			3.44	13.5	1.87	3.81	5.95	2.1
N#CC1Nc2ccccc2[C@@H](O)C1O (stereo partly drawn)		> 100		> 100		> 100		> 100		> 100		> 100				> 100		> 100	> 100	
Nc1ccncc1/C=C1/C(=O)Nc2ccccc21	56.9	> 100			27.8	> 100	26.6	> 100	28.4	> 100	35.9	> 100	36.8	> 100	> 100	> 100	54.7	> 100	> 100	43.9
CCOC(=O)CCc1c(C)c2c(OC(C)=O)cc(OC(C)=O)cc2oc1=O		> 100		> 100		> 100				91.1				> 100				> 100	> 100	
O=C(Nc1cccc(Cl)c1Cl)c1cccc(NC2=C(Cl)C(=O)N(Cc3ccccc3)C2=O)c1	36.2	> 100			79.9	> 100	11.3	> 100	22.4	94.7	12.6	62.5	> 100	> 100	> 100	> 100	> 100	> 100	> 100	22.1
O=C1c2ccn(CCCCNC(CO)(CO)CO)c2C(=O)c2c1c(O)c1ccccc1c2O	1.86	3.96	1890	19.6	1.83	4.37			4.57	13.8	16.3	42.3	3.33	22.6	2.76	> 22.1	0.517	1.72	0.857	0.436
CC1=C(C(=O)Nc2c(C)cccc2C)C(c2ccccc2Cl)C(C(=O)Nc2c(C)cccc2C)=C(C)N1		> 100		> 100		> 100				> 100				> 100				> 100		
Cc1[nH]n(-c2cccc(Cl)c2)c(=O)c1/C=C1\C=Nc2ccc(Br)cc21	2.27	5.68			4.5	> 100	5.95	> 100	1.78	3.53	3.4	16	5.79	25.7	2.06	6.26	2.6	5.18	7.03	2.65
N#C/C(=C\c1ccc(O)c(O)c1)C(N)=O		> 100		> 100		> 100				> 100				> 100				> 100	67.9	
CC(=O)OCC1OC([S-])C(OC(C)=O)C(OC(C)=O)C1OC(C)=O.CC[PH+](CC)CC.CC[PH+](CC)CC.[Au].[Au] (stereo not drawn)	1.72	4	280	0.584	0.319	0.989							0.197	0.552			0.717	1.69	1.7	0.397
NC1CCCC[C@H]1N.N[C@@H]1CCCC[C@@H]1N.O=C(P(=O)([O-])[O-])P(=O)([O-])[O-].[Pt+4].[Pt+4]	> 100	> 100	> 100000	> 100	70.9	> 100			20	> 100			> 100	> 100			> 100	> 100	> 100	83.8
CC(C)(C)N1CC2(CCCCC2)C1=O		> 100		> 100		> 100				> 100				> 100				> 100	> 100	
